From patent US9776976B2, “Triazolone compounds and uses thereof” (Inception 2, Inc., priority 2013, dated 2017) come the findings set out here.

Common to all, as to type: cell-based
Assay [1] deals with T1, Human PPARα (Homo sapiens, UniProt Q07869).
T1 construct: host or cells: proprietary non-human mammalian cells
T1 sequence (Q07869 1-468): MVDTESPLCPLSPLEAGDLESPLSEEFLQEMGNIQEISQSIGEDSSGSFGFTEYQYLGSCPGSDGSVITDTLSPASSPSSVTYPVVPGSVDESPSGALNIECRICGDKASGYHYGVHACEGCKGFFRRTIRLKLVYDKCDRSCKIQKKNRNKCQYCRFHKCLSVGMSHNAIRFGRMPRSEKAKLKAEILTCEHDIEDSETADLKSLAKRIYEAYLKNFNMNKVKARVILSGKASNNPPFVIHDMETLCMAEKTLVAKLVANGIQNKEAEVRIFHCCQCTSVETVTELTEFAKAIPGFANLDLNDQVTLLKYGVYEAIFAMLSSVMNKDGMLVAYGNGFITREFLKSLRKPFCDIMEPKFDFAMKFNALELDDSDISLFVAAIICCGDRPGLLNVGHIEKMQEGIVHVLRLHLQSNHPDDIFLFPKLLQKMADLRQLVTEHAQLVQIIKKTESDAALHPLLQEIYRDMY
Nature of the assay: Human PPARα Reporter Assay (luciferase, Indigo Biosciences). Particulars: antagonist mode, reporter cells, overnight incubation. As for the experimental part:
Human PPARα Reporter Assay The screening of test compounds for agonist or antagonist activities against human PPARα receptors was performed using a commercial kit, Human PPARα Reporter Assay System (Indigo Biosciences, Cat. #IB00111). This nuclear receptor assay system utilizes proprietary non-human mammalian cells engineered to provide constitutive, high-level expression of Human PPARα. Because these cells incorporate a PPARα-responsive luciferase reporter gene, quantifying expressed luciferase activity provides a sensitive surrogate measure of PPARα activity in the treated cells. The primary application of this reporter assay system is in the screening of test samples to quantify any functional activity, either agonist or antagonist, that they may exert against human PPARα. […] Briefly, reporter cells are dispensed into wells of the assay plate and then immediately dosed with test compounds. Following an overnight incubation, the treatment media is discarded and Luciferase Detection Reagent (LDR) is added. The intensity of light emission from the ensuing luciferase reaction provides a sensitive measure that is directly proportional to the relative level of PPARα activation in the reporter cells.
(In general: In a reporter assay the amount or activity of a reporter protein is the signal.)

Assay [2] addresses T2, human PPAR γ (Homo sapiens, UniProt P37231).
T2 sequence (P37231 1-505): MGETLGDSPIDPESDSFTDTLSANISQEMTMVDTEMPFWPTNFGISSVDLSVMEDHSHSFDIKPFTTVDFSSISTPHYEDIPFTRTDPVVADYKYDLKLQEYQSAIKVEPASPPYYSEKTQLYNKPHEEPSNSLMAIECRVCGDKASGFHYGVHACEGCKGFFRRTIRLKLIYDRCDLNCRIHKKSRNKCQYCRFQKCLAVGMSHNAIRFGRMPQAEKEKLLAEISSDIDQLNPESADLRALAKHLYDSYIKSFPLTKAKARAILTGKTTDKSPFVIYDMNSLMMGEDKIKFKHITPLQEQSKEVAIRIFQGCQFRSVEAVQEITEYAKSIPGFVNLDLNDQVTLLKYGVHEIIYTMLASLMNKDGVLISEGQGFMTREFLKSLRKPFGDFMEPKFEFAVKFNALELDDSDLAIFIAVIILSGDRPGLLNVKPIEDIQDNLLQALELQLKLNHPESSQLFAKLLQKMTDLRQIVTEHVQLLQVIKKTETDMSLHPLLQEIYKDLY
Nature of the assay: Human PPARγ reporter assay (Indigo Biosciences kit). As to conditions: antagonist mode, agonist at ~EC80; read-out: PPARγ. As for the experimental part: (§1) Target Selectivity Assays
(§2) To determine species selectivity, a Mouse PPARα Reporter Assay System was used (Indigo Biosciences, Cat. #M00111). Activity of test compounds to antagonize or agonize other isoforms of human PPAR, for example β/δ and γ, were assessed using the corresponding kits from Indigo Biosciences (Cat. #IB00121 and #IB00101, respectively). In addition to PPAR activity, compounds were also screened for activity against other nuclear hormone receptors including Estrogen Receptor β, Glucocorticoid Receptor and Thyroid Receptor β using commercially available kits (Indigo Biosciences, Cat. #IB00411, IB00201 and IB01101, respectively). Each assay system from Indigo Biosciences uses technology analogous to the human PPARα kit, with the variance being that the cells used for each assay were engineered to over-express the receptor of interest. In addition, the appropriate receptor agonist (included with each kit) was used at ˜EC80 for assays in which antagonist potency was being assessed.

For assay [3], the target named is T3, human PPAR β/δ (Homo sapiens, UniProt Q03181).
T3 construct: host or cells: engineered reporter cells (analogous to the PPARα kit)
T3 sequence (Q03181 1-441): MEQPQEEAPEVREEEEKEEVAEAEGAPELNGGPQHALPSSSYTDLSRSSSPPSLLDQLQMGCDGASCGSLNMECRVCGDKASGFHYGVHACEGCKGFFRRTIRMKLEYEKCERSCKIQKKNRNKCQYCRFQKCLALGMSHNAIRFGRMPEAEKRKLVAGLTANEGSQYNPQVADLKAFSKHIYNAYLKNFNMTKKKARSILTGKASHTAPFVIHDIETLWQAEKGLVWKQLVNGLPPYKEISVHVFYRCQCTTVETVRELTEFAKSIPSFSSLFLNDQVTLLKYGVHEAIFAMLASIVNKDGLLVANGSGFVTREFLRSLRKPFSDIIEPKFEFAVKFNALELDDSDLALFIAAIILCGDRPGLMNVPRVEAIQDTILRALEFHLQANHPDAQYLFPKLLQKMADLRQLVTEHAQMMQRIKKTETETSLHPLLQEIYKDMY
Description: Human PPAR β/δ reporter assay (luciferase, Indigo Biosciences kit). As to conditions: antagonist mode, agonist at ~EC80; read-out: PPARδ Luciferase IC50. Here is the method:
as §1, §2

Molecules are shown by their SMILES.

Take `CCOc1ccc(-c2ccc(CCCc3nn(-c4ccc(C(F)(F)F)cc4)c(=O)n3-c3cccc(F)c3)cc2)cc1CC(=O)O` [Example 21]: the IC50 stood at 30 nM in assay [1], 55200 nM in assay [2] and 67 nM in assay [3].

Turning to `CCOc1ccc(-c2ccc(CCCc3nn(-c4ccc(C(F)(F)F)cc4)c(=O)n3-c3ccccc3Cl)cc2)cc1CC(=O)O` [Example 19], the IC50 in assay [1] was determined as 31 nM; in assay [2] it was 22300 nM; in assay [3], 32 nM.

Consider `CCOc1ccc(-c2cccc(CCCc3nn(-c4ccc(C(F)(F)F)cc4)c(=O)n3-c3ccccc3F)c2)cc1CC(=O)O` [Example 30, 2-(4-ethoxy-3′-(3-(4-(2-fluorophenyl)-5-oxo-1-(4-(trifluoromethyl)phenyl)-4,5-dihydro-1H-1,2,4-triazol-3-yl)propyl)-[1,1′-biphenyl]-3-yl)acetic acid], for which the values for the IC50 in assay [1], in assay [2] and in assay [3] were 386 nM, 27600 nM and 96 nM, respectively.

For the molecule `CCOc1ccc(-c2ccc(CCCc3nn(-c4ccc(C(C)C)cc4)c(=O)n3-c3ccccc3Cl)cc2)cc1CC(=O)O` [Example 27, 2-(4′-(3-(4-(2-chlorophenyl)-1-(4-isopropylphenyl)-5-oxo-4,5-dihydro-1H-1,2,4-triazol-3-yl)propyl)-4-ethoxy-[1,1′-biphenyl-]-3-yl)acetic acid], the IC50 in assay [1] came out at 28 nM; in assay [2] it was 28900 nM; in assay [3], 236 nM.

Regarding `CCCn1c(CCCc2ccc(-c3ccc(OCC)c(CC(=O)O)c3)cc2)nn(-c2ccc(C(F)(F)F)cc2)c1=O` [Example 3, 2-(4-ethoxy-4′-(3-(5-oxo-4-propyl-1-(4-(trifluoromethyl)phenyl)-4,5-dihydro-1H-1,2,4-triazol-3-yl)propyl)-[1,1′-biphenyl]-3-yl)acetic acid], the IC50 in assay [1] stood at 113 nM; in assay [2], 50000 nM; in assay [3], 474 nM.

As to `Cc1cc(CCCc2nn(-c3ccc(C(F)(F)F)cc3)c(=O)n2-c2ccccc2F)ccc1-c1ccc(C(F)(F)F)c(C(=O)O)c1` [Example 10, 4′-(3-(4-(2-fluorophenyl)-5-oxo-1-(4-(trifluoromethyl)phenyl)-4,5-dihydro-1H-1,2,4-triazol-3-yl)propyl)-2′-methyl-(4-trifluoromethyl)-[1,1′-biphenyl-]-3-carboxylic acid], the IC50 in assay [1] is 192 nM; in assay [2], 28100 nM; in assay [3], 198 nM.

`CCOc1ccc(-c2ccc(CCCc3nn(-c4ccc(C(F)(F)F)cc4)c(=O)n3C3CCC(C)CC3)cc2)cc1CC(=O)O` (stereo not drawn) [Example 5]: the IC50 in assay [1] worked out at 109 nM; in assay [2], 40000 nM; in assay [3] it was 125 nM.

As for `CCOc1ccc(-c2ccc(CCCc3nn(-c4ccc(C(F)(F)F)cc4)c(=O)n3C3CCCCC3C)cc2)cc1CC(=O)O` (stereo not drawn) [Example 7], the IC50 in assay [1] is 324 nM; in assay [2], 19400 nM; in assay [3], 220 nM.

For `CCOc1ccc(-c2ccc(CCCc3nn(-c4ccc(C(F)(F)F)cc4)c(=O)n3-c3ccccc3CC)cc2)cc1CC(=O)O` [Example 25, 2-(4-ethoxy-4′-(3-(4-(2-ethylphenyl)-5-oxo-1-(4-(trifluoromethyl)phenyl)-4,5-dihydro-1H-1,2,4-triazol-3-yl)propyl)-[1,1′-biphenyl]-3-yl)acetic acid], the IC50 in assay [1] turned out to be 343 nM; in assay [2], 29000 nM; in assay [3], 100 nM.
